The subject of series [1] is rats subjected to chronic restraint stress. Nature of the series: Sucrose preference test (SPT) after chronic restraint stress (CRS). The class given is in vivo, rat. Particulars: 10 days CRS; L-655,708 0.7 mg/kg i.p.; 24 hrs post-injection; vs pre-stress baseline. The source says: MRK-016 rapidly reverses loss of sucrose preference and social interaction behaviors after chronic restraint stress (FIG. 9). […] This persisted for 7 days despite further stress exposure. and in the same animals after an additional week of CRS and 7 days after the injection of MRK-016.
(§1) Chronic restraint stress (CRS). Male Sprague Dawley rats (4-5 weeks-old; Harlan Laboratories) were placed in appropriately sized restraint tubes, highly restricting their movement for periods of four hours in a brightly lit lab, every day for ten days during the light phase of their diurnal cycle (Lim et al., 2012).
Sucrose preference test (SPT). Rats were given a choice between two bottles containing tap water or a 1% sucrose solution (Rygula et al., 2006). Testing was conducted overnight (16 hours), including the full duration of their dark phase. Animals were first trained with both bottles while group-housed. For subsequent tests, including during the baseline period, animals were individually housed. Sucrose preference was calculated as amount of the sucrose solution consumed as a percentage of the total amount of liquid consumed.
Drugs/stats. L-655,708 was purchased from Tocris Bioscience (R&D Systems, Minneapolis, Minn.) and prepared at a concentration of 5 mM in 75% saline/25% DMSO. […] This dose is sufficient to occupy about 70% of forebrain binding sites (Atack et al., 2005)
Several hedonic behaviors in rodents are sensitive to chronic stress and are restored by chronic, but not acute, administration of SSRIs, providing one means to screen for potential antidepressant compounds. First, it was determined whether L-655,708 would rapidly (<24 hrs) restore normal hedonic behavior following chronic restraint stress (Watanabe et al., 1992; Lim et al., 2012), consistent with the rapid antidepressant-like actions of ketamine (Li et al., 2011). Baseline measurements were first made of social interaction and sucrose preference, and then 4-5 week old rats were subjected to ten days of CRS. […]

The test system of series [2] is rats subjected to chronic unpredictable stress. In words: Sucrose preference test (SPT) after chronic unpredictable stress (CUS). Particulars: L-655,708 24 hours earlier. The class given is in vivo, rat. As for the experimental part:
Sucrose preference test. Rats are administered a sucrose preference test before chronic unpredictable stress or no stress. The left bar of the pairs (black) reflects CUS rats and the right bar of the pairs (white) reflects unstressed rats.
Chronic unpredictable stress (CUS). Male Sprague-Dawley rats (4-5 weeks-old; Harlan Laboratories) were randomly divided into control and CUS groups. Rats in the CUS group were individually housed. CUS animals were treated with two mild stressors every day for 5-6 weeks during their light phase (Willner et al., 1987). The stressors were randomly cycled to enhance unpredictability. The stressors were: forced swim, in which rats were placed in a basin containing cold water for 5 minutes; strobe lighting, in otherwise total darkness for 30 minutes; restraint, during which rats were put into appropriately sized restraint tubes for 30 minutes; exposure to white noise for 30 minutes; and food or water deprivation for 14 hours spanning the dark phase.
Sucrose preference test (SPT). Rats were given a choice between two bottles containing tap water or a 1% sucrose solution (Rygula et al., 2006). Testing was conducted overnight (16 hours), including the full duration of their dark phase. […] Sucrose preference was calculated as amount of the sucrose solution consumed as a percentage of the total amount of liquid consumed.

A further series concerns ΔFosB. In words: FosB and ΔFosB expression after injection. It is filed as in vivo, rat. An excerpt:
D3. Nestler and colleagues have shown that induction of the transcription factor ΔFosB in D1R-expressing medium spiny neurons in the NAc in response to chronic stress is an important mediator of resilience and may play a role in the antidepressant actions of fluoxetine by changing gene expression and synaptic strength (Perrotti et al., 2004; Lobo et al., 2013; Grueter et al., 2013). It is considered whether alpha5 GABA-NAM injection also affects deltaFosB expression. Control and CRS-susceptible rats receive an injection of L-665, 708. […] Tissue punches are taken from the NAc, area CA1, EC, and PFC and subjected to Western blotting for quantification of deltaFosB levels. Sections are prepared from these same regions and stained for ΔFosB in order to count immunoreactive nuclei with stereological techniques (Vialou et al., 2010). Sections through the ventral striatum are co-stained with an antibody against the D1R, since the expression of ΔFosB in these cells may be particularly important for SSRI actions (Lobo et a/., 2013). Similar to fluoxetine, in specific embodiments in stressed and unstressed animals, alpha5 GABA-NAM affects ΔFosB expression in the NAc and other brain regions, consistent with initial studies (FIG. 5).

For a further series, the system named is rats. In words: Open field test (anxiety). Particulars: rat, in vivo. An excerpt: C1. One cohort of control rats are given a baseline open field test. One week later, half of the animals receive an injection of L-665,708 or vehicle, followed 24 hrs later by a second open field test in a new arena.
Series [3] has as its system chronically stressed rats. In words: Reversal of chronic stress-induced behavioral changes (SPT and SIT; CRS and CUS) overall. The class given is in vivo, rat.
Description: as §1
Chronic unpredictable stress (CUS). Male Sprague-Dawley rats (4-5 weeks-old; Harlan Laboratories) were randomly divided into control and CUS groups. Rats in the CUS group were individually housed. CUS animals were treated with two mild stressors every day for 5-6 weeks during their light phase (Willner et al., 1987). The stressors were randomly cycled to enhance unpredictability. […]
Sucrose preference test (SPT). […] Sucrose preference was calculated as amount of the sucrose solution consumed as a percentage of the total amount of liquid consumed. […]
Several hedonic behaviors in rodents are sensitive to chronic stress and are restored by chronic, but not acute, administration of SSRIs, providing one means to screen for potential antidepressant compounds. First, it was determined whether L-655,708 would rapidly (<24 hrs) restore normal hedonic behavior following chronic restraint stress (Watanabe et al., 1992; Lim et al., 2012), consistent with the rapid antidepressant-like actions of ketamine (Li et al., 2011). […]

For series [4], the target named is GABAARs containing the alpha5 subunit (Homo sapiens, UniProt P18507+P31644). Particulars: Atack et al., 2005; 2006; cited from earlier work.
Another series deals with forebrain binding sites. Particulars: 0.7 mg/kg i.p.; Atack et al., 2005; cited from earlier work.
For series [5], the system named is amnestic properties of the anesthetic etomidate. Particulars: 0.7 mg/kg i.p.; Martin et al (2009); cited from earlier work.

Entries after “also recorded” stand apart in the source; their conditions may differ. Where only a bound is given, the exact number is not on record here.

Sequence of GABAARs containing the alpha5 subunit (P31644 32-462): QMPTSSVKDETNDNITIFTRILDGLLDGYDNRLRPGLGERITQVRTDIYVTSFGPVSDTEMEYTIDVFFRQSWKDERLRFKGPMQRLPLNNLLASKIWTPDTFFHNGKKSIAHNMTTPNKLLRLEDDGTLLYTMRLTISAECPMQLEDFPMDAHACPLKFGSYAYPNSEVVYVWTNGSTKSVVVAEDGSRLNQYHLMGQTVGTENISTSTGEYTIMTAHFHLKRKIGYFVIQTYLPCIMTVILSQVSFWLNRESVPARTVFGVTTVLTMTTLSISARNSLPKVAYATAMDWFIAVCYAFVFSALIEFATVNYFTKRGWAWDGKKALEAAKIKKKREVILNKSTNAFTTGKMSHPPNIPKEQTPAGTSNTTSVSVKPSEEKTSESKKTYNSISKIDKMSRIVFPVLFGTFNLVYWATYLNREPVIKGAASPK
Sequence of GABAARs containing the alpha5 subunit (P18507 40-475): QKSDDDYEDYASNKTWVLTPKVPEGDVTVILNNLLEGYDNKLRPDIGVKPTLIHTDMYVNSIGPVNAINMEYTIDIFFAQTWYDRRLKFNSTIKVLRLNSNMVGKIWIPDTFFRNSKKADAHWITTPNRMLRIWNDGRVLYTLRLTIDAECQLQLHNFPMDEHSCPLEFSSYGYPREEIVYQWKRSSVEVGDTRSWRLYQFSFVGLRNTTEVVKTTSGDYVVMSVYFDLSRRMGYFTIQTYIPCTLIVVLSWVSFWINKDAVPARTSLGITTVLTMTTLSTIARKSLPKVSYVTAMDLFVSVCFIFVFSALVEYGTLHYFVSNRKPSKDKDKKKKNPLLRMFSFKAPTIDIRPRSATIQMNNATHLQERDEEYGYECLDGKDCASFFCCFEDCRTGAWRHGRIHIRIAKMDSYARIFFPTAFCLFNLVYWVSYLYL
Sequence of GABAARs containing the alpha5 subunit (P28472 26-473 partner): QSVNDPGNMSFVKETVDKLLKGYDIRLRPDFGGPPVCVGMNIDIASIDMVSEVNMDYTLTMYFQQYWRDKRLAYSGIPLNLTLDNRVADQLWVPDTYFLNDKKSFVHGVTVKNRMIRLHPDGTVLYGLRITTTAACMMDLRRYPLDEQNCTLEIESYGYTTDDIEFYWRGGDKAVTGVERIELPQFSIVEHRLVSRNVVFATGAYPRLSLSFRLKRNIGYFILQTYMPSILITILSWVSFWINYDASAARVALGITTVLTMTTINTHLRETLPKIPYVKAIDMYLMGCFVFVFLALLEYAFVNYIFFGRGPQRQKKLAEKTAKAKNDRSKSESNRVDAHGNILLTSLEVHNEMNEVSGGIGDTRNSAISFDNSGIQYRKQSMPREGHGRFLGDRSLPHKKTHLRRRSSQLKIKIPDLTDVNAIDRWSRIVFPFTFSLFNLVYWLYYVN

Regarding `CCOC(=O)c1ncn2c1[C@@H]1CCCN1C(=O)c1cc(OC)ccc1-2` [L-655,708, ethyl (13aS)-7-methoxy-9-oxo-11, 12,13,13 a-terahydro-9H-imidazo[1,5-a]pyrrolo[2,1-c] [1,4]benzodiazepine-1-carboxylate], the sucrose preference entry in series [1] was “not different from their pre-stress baseline”; in series [2], “restores the behavior; also recorded: restored sucrose preference”. Moreover, the “expression of FosB and ΔFosB” value with ΔFosB (24 hrs after injection) is given as “No changes were apparent”. In the series with ΔFosB (unstressed animals, one hour after injection), the “expression of FosB and ΔFosB in the NAc” value was “increase”. Moreover, the “anxiety in the open field test” value in the series with rats is given as “no evidence of increased anxiety”. The “time to reversal of chronic stress-induced depressive-like behavioral changes” value in series [3] (CRS and CUS, 0.7 mg/kg i.p., model-independent) was “less than 24 hrs”. In addition, in series [3] (single injection, l mg/kg intraperitoneally, CUS and CRS), the “time to reversal of loss of sucrose preference and decrease in social interaction” value is ≤ 24 h. In addition, the “selectivity for GABAARs containing the alpha5 subunit” value in series [4] was 10-100 fold. In the series with forebrain binding sites, the “occupancy of forebrain binding sites” value is “about 70%”. The “effect on amnestic properties of etomidate” value in series [5] is listed as “reverse the amnestic properties”.
